The source of these data is patent publication US20030083483A1, “Molecular interaction sites of vimentin RNA and methods of modulating the same” (priority 1999, published 2003).

Values after ≈ are worked out from the molar mass of the structure shown.

Series [1] has as its system 18S A site model. Kind of series: ESI-FTICR mass spectrometric complex detection with 18S A-site model RNA. Format: binding, eukaryotic. To be noted: mixture of five aminoglycosides, 16S and 18S targets simultaneously. As for the experimental part:
Paromomycin, lividomycin (MW=761.354 Da), sisomicin (MW=447.269 Da), tobramycin (MW=467.2591 Da), and bekanamycin (MW=483.254 Da) were obtained from Sigma (St. Louis, Mo.) and ICN (Costa Mesa, Calif.) and were dissolved to generate 10 mM stock solutions. 2′ methoxy analogs of RNA constructs representing the prokaryotic (16S) rRNA and eukaryotic (18S) rRNA A-site were synthesized in house and precipitated twice from 1 M ammonium acetate following deprotection with ammonia (pH 8.5). The mass-tagged constructs contained an 18-atom mass tag (C12H2509) attached to the 5′-terminus of the RNA oligomer through a phosphodiester linkage.
All mass spectrometry experiments were performed using an Apex II 70e electrospray ionization Fourier transform ion cyclotron resonance mass spectrometer (Bruker Daltonics, Billerica) employing an actively shielded 7 tesla superconducting magnet. […]
(§1) Mass spectrometry experiments were performed in order to detect complex formation between a library containing five aminoglycosides (Sisomicin (Sis), Tobramycin (Tob), Bekanomycin (Bek), Paromomycin (PM), and Livodomycin (LV)) and two RNA targets simultaneously. Signals from the (M-5H+)^5− charge states of free 16S and 18S RNAs are detected at m/z 1801.515 and 1868.338, respectively. […]

Series [2] deals with 27-mer model RNA sequence of the 16S A-site. Briefly: MASS mass spectrometry binding assay with 16S A-site 27-mer RNA. Further details: species or system prokaryotic. To be noted: for complexes detected with the 16S A site 27mer RNA: ESI-FTICR, mixture of five aminoglycosides, 16S and 18S targets simultaneously. How it is done:
The compounds are screened for binding affinity using MASS or conventional high-throughput functional screens. The best scoring compounds from docking a 256-member library against the 16S A-site ribosomal RNA structure are shown in the table 5 below. The MASS assay was performed with the 27-mer model RNA sequence of the 16S A-site whose NMR structure has been determined. The transcription/translation assay was based on expression of a luciferase plasmid.
A preferred first step of MASS screening involves mixing the RNA target (or targets) with a combinatorial library of ligands designed to bind to a specific site on the target molecule(s). Specific noncovalent complexes formed in solution between the target(s) and any library members are transferred into the gas phase and ionized by ESI. As described herein, from the measured mass difference between the complex and the free target, the identity of the binding ligand can be determined. The dissociation constant of the complex can be determined in two ways: if a ligand with a known binding affinity for the target is available, a relative Kd can be measured by using the known ligand as an internal control and measuring the abundance of the unknown complex to the abundance of the control, alternatively, if no internal control is available, Kd's can be determined by making a series of measurements at different ligand concentrations and deriving a Kd value from the “titration” curve.
In a direct determination of solution phase dissociation constants (Kd's) by mass spectrometry, ESI-MS measurements of a solution containing a fixed concentration of RNA at different concentrations of ligand were obtained. By measuring the ratio of bound:unbound RNA at varying ligand concentrations, the Kd was determined by 1/slope of the “titration curve”. The MS derived value of 110 nM is in good agreement with previously reported literature value of 200 nM.
All mass spectrometry experiments were performed using an Apex II 70e electrospray ionization Fourier transform ion cyclotron resonance mass spectrometer (Bruker Daltonics, Billerica) employing an actively shielded 7 tesla superconducting magnet. RNA solutions were prepared in 50 mM NH4OAc (pH 7), mixed 1:1 v:v with isopropanol to aid desolvation, and infused at a rate of […] using a syringe pump. Ions were formed in a modified electrospray source (Analytica, Branford) employing an off axis, grounded electrospray probe positioned ca. 1.5 cm from the metalized terminus of the glass desolvation capillary biased at 5000 V. A counter-current flow of dry […] gas heated to 225C was employed to assist in the desolvation process. Ions were accumulated in an external ion reservoir comprised of an RF-only hexapole, a skimmer cone, and an auxiliary electrode for 1000 ms prior to transfer into the trapped ion cell for mass analysis. Each spectrum was the result of the coaddition of 16 transients comprised of […] acquired over a 90,909 kHz bandwidth resulting in a 700 ms detection interval. All aspects of pulse sequence control, data acquisition, and post acquisition processing were performed using a Bruker Daltonics datastation running XMASS version 4.0 on a Silicon Graphics (San Jose, Calif.) R5000 computer.
as §1, with “respectively. The mass spectrometric assay reproduces the known solution binding properties of aminoglycosides to the 16S A site model and an 18S A site model with a neutral mass linker. Consistent with the higher binding affinity of theses aminoglycosides for the 16S A-site relative to the 18S A-site, aminoglycoside complexes are observed only with the 16S rRNA target.” for “respectively.”

In series [3] the test system is E. coli. Kind of series: high throughput screening assay for antibacterial activity. Format: cell-based. To be noted: Escherichia coli; against E. coli; crude compounds, identical activity with analytically pure material; read-out: minimum inhibitory concentrations (MIC's). An excerpt: This activity was verified by manual solution synthesis of analytically pure material as described in Example 6 above, which had identical activity.

The conditions of series [4]: general statement; cited from earlier work.
For series [5] the following is noted: general statement; cited from earlier work. The source holds these as a separate data set.
Series [6] deals with luciferase mRNA. Kind of series: wheat germ lysate translation of luciferase mRNA. Format: biochemical. The conditions noted are these: mRNA without TAR structure. An excerpt: It is believed that stabilization of mRNA structures near the 5′-cap also could be effected by specific “small” molecules, and that such binding would reduce the translational efficiency of the mRNA. To test this hypothesis, a plasmid was constructed containing the luciferase message behind a 5′-UTR containing a 27-mer RNA construct of the HIV TAR stem-loop bulge whose structure had been determined by NMR.

Series [7] concerns the target luciferase mRNA containing the TAR RNA structure in the 5′-UTR. Kind of series: wheat germ lysate translation of luciferase mRNA with TAR in the 5′-UTR. In kind it is biochemical, HIV. The conditions noted are these: read-out: concentration reducing translation by 50%. An excerpt:
It is believed that stabilization of mRNA structures near the 5′-cap also could be effected by specific “small” molecules, and that such binding would reduce the translational efficiency of the mRNA. To test this hypothesis, a plasmid was constructed containing the luciferase message behind a 5′-UTR containing a 27-mer RNA construct of the HIV TAR stem-loop bulge whose structure had been determined by NMR. The resulting mRNA could be expressed and capped in a wheat germ lysate translation system supplemented with T7 polymerase following addition of m^7G to the lysate. Insertion of a 9-base leader before the TAR structure (HIVluc+9) enhanced the translational efficiency, presumably by allowing the pre-initiation complex to form. The helicase activity associated with the pre-initiation complex can transiently melt out the TAR RNA structure, and the message is translated.

Series [8] has as its system TAR RNA interaction with tat peptide. Kind of series: disruption of TAR RNA interaction with tat peptide. Format: binding, HIV-1.

Turning to `NC[C@@H]1O[C@H](O[C@H]2[C@@H](O)[C@H](O[C@@H]3[C@@H](O)[C@H](N)C[C@H](N)[C@H]3O[C@H]3O[C@H](CO)[C@@H](O)C[C@H]3N)O[C@@H]2CO)[C@H](N)[C@@H](O)[C@@H]1O[C@H]1O[C@H](CO)[C@@H](O)[C@H](O)[C@@H]1O` [lividomycin], in series [1], the “complexes with the 18S A site model” value is “absence”. In series [2] (16S A site 27mer, ESI-MS titration, read-out: KD measured by mass spectrometry), the Kd (usually the free concentration of one partner at which half of the binding sites on the other are occupied at equilibrium, for simple one-to-one binding) worked out at 0.028 µM. Also, the “complexes detected with the 16S A site 27mer RNA” value (“complexes detected” below) in series [2] is on record as “High affinity complexes”.
On to `NC[C@H]1O[C@H](O[C@H]2[C@H](O)[C@@H](O[C@H]3O[C@H](CO)[C@@H](O)[C@H](N)[C@H]3O)[C@H](N)C[C@@H]2N)[C@H](N)[C@@H](O)[C@@H]1O` [bekamycin, bekanamycin], for which the “complexes detected” value in series [2] is recorded as “Weaker complexes”.
For `O=C(NO)[C@@H](Cc1ccc2ccccc2c1)NS(=O)(=O)c1ccc2ccccc2c1` [Compound 5-n-ii, (2R)-3-(2-naphthyl)-2-((2-naphthylsulfonyl)Amino)Propanehydroxamic Acid], the MIC in series [3] was in the range of 0.7 to 1.5 µM (≈ 0.294 to 0.631 µg/mL).
Regarding `CN[C@@H]1[C@@H](O)[C@@H](O[C@@H]2[C@@H](O)[C@H](O[C@H]3OC(CN)=CC[C@H]3N)[C@@H](N)C[C@H]2N)OC[C@]1(C)O` [sisomycin, sisomicin], the “complexes detected” value in series [2] is given as “Weaker complexes”.
For `C=C(NC(=O)C(=C)NC(=O)c1csc(C2=N[C@@H]3c4csc(n4)[C@H]4NC(=O)c5csc(n5)[C@H]([C@](C)(O)[C@@H](C)O)NC(=O)[C@H]5CSC(=N5)/C(=C/C)NC(=O)[C@H]([C@@H](C)O)NC(=O)c5csc(n5)[C@]3(CC2)NC(=O)[C@H](C)NC(=O)C(=C)NC(=O)[C@H](C)NC(=O)[C@H]([C@@H](C)CC)N[C@@H]2C=Cc3c([C@H](C)O)cc(nc3[C@H]2O)C(=O)O[C@@H]4C)n1)C(N)=O` [thiostrepton], the solubility result in series [4] is “very poor”. The toxicity entry in series [5] is given as “relatively high”.
`O=C(NO)[C@@H](Cc1ccc2ccccc2c1)NS(=O)(=O)c1ccc(Br)cc1` [Compound 5-n-vi, (2R)-2-(((4-bromophenyl)Sulfonyl)Amino)-3-(2-naphthyl)Propanehydroxamic Acid]: the MIC in series [3] is 3 to 6 µM (≈ 1.35 to 2.7 µg/mL).
With `NC[C@H]1O[C@H](O[C@H]2[C@H](O)[C@@H](O[C@H]3O[C@H](CO)[C@@H](O)[C@H](N)[C@H]3O)[C@H](N)C[C@@H]2N)[C@H](N)C[C@@H]1O` [tobramycin], the “complexes detected” value in series [2] was “Weaker complexes”.
`CNc1ccc(NCCO)c2c1C(=O)c1ccccc1C2=O` [ACD 00001199]: in series [6], the “inhibition of translation of the luciferase mRNA” value is given as “some inhibition of translation at very high concentrations”. The IC50 in series [7] came out at 50 µM. Also, in series [8], the “concentration at which binding to TAR RNA disrupts the interaction with tat peptide” value stood at 1 µM. Also, the IC50 values result in series [8] (in words, assay not stated, TAR ligands) is given as “low”.
